Measured values as given in ChEMBL document CHEMBL4371025, “Discovery and evaluation of novel FAAH inhibitors in neuropathic pain model” (Bioorg Med Chem Lett, 2019).

Columns and labels:
[1] = Drug level in brain of Sprague-Dawley rat at 10 mg/kg, po administered as single dose via gavage measured at 4 hrs by LC-MS/MS analysis; assay type: ADME, organism-based; conditions: read-out: Drug uptake
[2] = Elimination half life in Sprague-Dawley rat at 3 mg/kg, iv administered as single dose by LC-MS/MS analysis; assay type: ADME, organism-based; conditions: in vivo, read-out: beta t1/2 (converted)
[3] = Drug level in brain of Sprague-Dawley rat at 10 mg/kg, po administered as single dose via gavage measured at 2 hrs by LC-MS/MS analysis; assay type: ADME, organism-based; conditions: read-out: Drug uptake
[4] = Drug level in plasma of Sprague-Dawley rat at 10 mg/kg, po administered as single dose via gavage measured at 32 hrs by LC-MS/MS analysis; assay type: ADME, organism-based
CYP2C19 = experiment: Selectivity ratio of IC50 for CYP2C19 in human liver microsomes to IC50 for human transmembrane domain deficient FFAH expressed in Escherichia coli; assay type: toxicity; conditions: read-out: Ratio IC50
[5] = AUC (0 to 48 hrs) in brain of Sprague-Dawley rat at 10 mg/kg, po administered as single dose via gavage by LC-MS/MS analysis; assay type: ADME, organism-based; set-up: dose 10 mg/kg, time < 48 hr, route oral
[6] = AUC (0 to 48 hrs) in Sprague-Dawley rat at 3 mg/kg, iv administered as single dose by LC-MS/MS analysis; assay type: ADME, organism-based; set-up: dose 3 mg/kg, time < 48 hr, route intravenous; conditions: in vivo
[7] = Volume of distribution at steady state in Sprague-Dawley rat at 3 mg/kg, iv administered as single dose by LC-MS/MS analysis; assay type: ADME, organism-based; conditions: in vivo, read-out: Vdss
CYP2D6 [8] = experiment: Selectivity ratio of IC50 for CYP2D6 in human liver microsomes to IC50 for human transmembrane domain deficient FFAH expressed in Escherichia coli; assay type: toxicity; conditions: read-out: Ratio IC50
[9] = Ratio of AUC (0 to 48 hrs) in brain to plasma of Sprague-Dawley rat at 10 mg/kg, po administered as single dose via gavage by LC-MS/MS analysis; assay type: ADME, organism-based; conditions: brain and plasma, read-out: Ratio AUC
[10] = Ratio of drug level in brain to plasma in Sprague-Dawley rat at 3 mg/kg, iv or 10 mg/kg, po administered as single dose via gavage by LC-MS/MS analysis; assay type: ADME, organism-based; conditions: brain and plasma, read-out: BPR
CYP2C9 = experiment: Selectivity ratio of IC50 for CYP2C9 in human liver microsomes to IC50 for human transmembrane domain deficient FFAH expressed in Escherichia coli; assay type: toxicity; conditions: read-out: Ratio IC50
Cytochrome P450 2D6 = Cytochrome P450 2D6 (Homo sapiens, UniProt P10635); experiment: Inhibition of CYP2D6 in human liver microsomes using dextromethorphan as substrate preincubated for 5 mins followed by NADPH cofactor addition and measured after 10 mins by LC-MS/MS analysis; assay type: ADME
[11] = Elimination half life in Sprague-Dawley rat at 3 mg/kg, iv or 10 mg/kg, po administered as single dose via gavage by LC-MS/MS analysis; assay type: ADME, organism-based; conditions: in vivo, read-out: beta t1/2 (converted)
[12] = Selectivity ratio of IC50 for MAGL (unknown origin) to IC50 for human transmembrane domain deficient FFAH expressed in Escherichia coli; assay type: toxicity
[13] = Drug level in plasma of Sprague-Dawley rat at 10 mg/kg, po administered as single dose via gavage measured at 48 hrs by LC-MS/MS analysis; assay type: ADME, organism-based
[14] = Drug level in brain of Sprague-Dawley rat at 10 mg/kg, po administered as single dose via gavage measured at 24 hrs by LC-MS/MS analysis; assay type: ADME, organism-based; conditions: read-out: Drug uptake
[15] = Volume of distribution at steady state in Sprague-Dawley rat at 3 mg/kg, iv or 10 mg/kg, po administered as single dose via gavage by LC-MS/MS analysis; assay type: ADME, organism-based; conditions: in vivo, read-out: Vdss
[16] = Drug level in brain of Sprague-Dawley rat at 10 mg/kg, po administered as single dose via gavage measured at 48 hrs by LC-MS/MS analysis; assay type: ADME, organism-based; conditions: read-out: Drug uptake
Monoglyceride lipase = target: T1, Monoglyceride lipase (Homo sapiens, UniProt Q99685); experiment: Inhibition of MAGL (unknown origin) up to 10 uM
T1 sequence (Q99685 whole entry): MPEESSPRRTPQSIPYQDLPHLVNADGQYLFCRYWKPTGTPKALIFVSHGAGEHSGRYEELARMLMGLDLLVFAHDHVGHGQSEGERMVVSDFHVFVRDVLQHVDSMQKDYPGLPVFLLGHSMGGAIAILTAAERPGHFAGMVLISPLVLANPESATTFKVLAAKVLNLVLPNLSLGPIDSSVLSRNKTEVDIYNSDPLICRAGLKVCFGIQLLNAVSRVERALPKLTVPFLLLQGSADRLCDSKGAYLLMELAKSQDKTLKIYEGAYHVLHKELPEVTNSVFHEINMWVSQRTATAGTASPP

[17] = target: T2, Fatty-acid amide hydrolase 1 (Homo sapiens, UniProt O00519); experiment: Inhibition of human transmembrane domain deficient FFAH expressed in Escherichia coli using AAMCA as substrate incubated for 1 min measured for 50 mins by fluorescence assay
T2 sequence (O00519 whole entry): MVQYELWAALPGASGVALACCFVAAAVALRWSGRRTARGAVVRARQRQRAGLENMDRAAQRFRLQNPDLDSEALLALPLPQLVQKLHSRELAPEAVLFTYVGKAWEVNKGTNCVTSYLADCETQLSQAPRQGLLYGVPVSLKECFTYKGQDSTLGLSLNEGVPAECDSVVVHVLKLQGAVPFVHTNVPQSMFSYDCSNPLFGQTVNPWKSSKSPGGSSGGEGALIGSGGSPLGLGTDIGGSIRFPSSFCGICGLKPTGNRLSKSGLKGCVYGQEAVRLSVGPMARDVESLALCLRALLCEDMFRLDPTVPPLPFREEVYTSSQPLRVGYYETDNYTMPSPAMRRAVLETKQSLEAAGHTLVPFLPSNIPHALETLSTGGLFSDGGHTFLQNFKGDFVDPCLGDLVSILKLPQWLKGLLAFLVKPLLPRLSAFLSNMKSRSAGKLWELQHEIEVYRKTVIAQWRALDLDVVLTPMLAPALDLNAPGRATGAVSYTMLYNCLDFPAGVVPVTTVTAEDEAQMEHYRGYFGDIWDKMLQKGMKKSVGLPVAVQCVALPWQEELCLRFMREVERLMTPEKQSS

[18] = Oral bioavailability in Sprague-Dawley rat at 10 mg/kg administered as single dose via gavage by LC-MS/MS analysis; assay type: ADME, organism-based; conditions: in vivo
CYP2D6 [19] = experiment: Selectivity ratio of IC50 for CYP2D6 in human liver microsomes to IC50 for rat FFAH expressed in Escherichia coli; assay type: toxicity; conditions: read-out: Ratio IC50
[20] = Drug level in liver of Sprague-Dawley rat at 10 mg/kg, po administered as single dose via gavage measured at 4 hrs by LC-MS/MS analysis; assay type: ADME, organism-based; conditions: read-out: Drug uptake
[21] = Drug level in liver of Sprague-Dawley rat at 10 mg/kg, po administered as single dose via gavage measured at 32 hrs by LC-MS/MS analysis; assay type: ADME, organism-based; conditions: read-out: Drug uptake
CYP3A4 = experiment: Selectivity ratio of IC50 for CYP3A4 in human liver microsomes using testosterone as substrate to IC50 for rat FFAH expressed in Escherichia coli; assay type: toxicity; conditions: probe testosterone, read-out: Ratio IC50
[22] = Intrinsic metabolic stability in human liver microsomes assessed as metabolic turnover rate per mg protein at 1 uM preincubated for 5 mins followed by NADPH cofactor addition and measured after 30 mins by LC-MS/MS analysis; assay type: ADME, Microsome; conditions: 0.5 h

Sequence of Cytochrome P450 2D6 (P10635 whole entry): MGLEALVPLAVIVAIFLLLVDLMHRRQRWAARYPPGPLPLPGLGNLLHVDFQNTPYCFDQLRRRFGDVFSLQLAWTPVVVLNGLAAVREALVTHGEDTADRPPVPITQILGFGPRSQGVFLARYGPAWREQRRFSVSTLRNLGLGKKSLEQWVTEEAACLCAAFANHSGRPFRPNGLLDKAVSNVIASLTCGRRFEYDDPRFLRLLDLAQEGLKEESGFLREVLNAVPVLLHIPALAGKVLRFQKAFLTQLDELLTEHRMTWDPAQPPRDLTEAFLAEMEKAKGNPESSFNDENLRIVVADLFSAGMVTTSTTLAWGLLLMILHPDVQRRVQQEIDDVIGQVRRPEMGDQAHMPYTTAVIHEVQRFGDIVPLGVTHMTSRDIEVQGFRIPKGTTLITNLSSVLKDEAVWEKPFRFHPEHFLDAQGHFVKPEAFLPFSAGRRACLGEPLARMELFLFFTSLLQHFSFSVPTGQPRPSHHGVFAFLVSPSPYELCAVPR

Row | Drug metabolism [22] | SMILES | concentration at 4 h [1] | half-life [2] | concentration at 2 h [3] | concentration at 32 h [4] | AUC(0-t) at 48 h [5] | AUC(0-t) at 48 h [6] | Vd [7] | Kp [9] | Kp [10] | IC50 (Cytochrome P450 2D6) | half-life [11] | concentration at 48 h [13] | concentration at 24 h [14] | Vd [15] | concentration at 48 h [16] | IC50 [17] | bioavailability [18] | concentration at 4 h [20] | concentration at 32 h [21] | other results
1 | 0.04 nmol/min/mg | O=C(N[C@H]1CC/C(=C\c2cccc(Oc3ccc(C(F)(F)F)cn3)c2)CC1)c1cccnc1 (centres undefined) | 6 µM | 5.1 h | 6.1 µM |  | 84 µM·h | 47 µM·h | 0.9 L/kg | 1.5 | 1.5 | > 10000 nM | 5.1 h |  | 1.1 µM | 0.9 L/kg |  | 0.7 nM | 35% | 43 µM |  | 
2 |  | Nc1ccc(C(=O)N[C@H]2CC/C(=C\c3cccc(Oc4ccc(C(F)(F)F)cn4)c3)CC2)cn1 (centres undefined) | 4.5 µM | 9.2 h | 5.1 µM | 2.2 µM | 135 µM·h | 152 µM·h | 0.6 L/kg | 0.6 | 0.6 | > 12500 nM | 9.2 h | 1 µM | 2.5 µM | 0.6 L/kg | 0.7 µM | 1.2 nM | 42% | 69.7 µM | 26.5 µM | 
3 | 0.06 to 0.07 nmol/min/mg | Cc1cc(C(=O)N[C@H]2CC/C(=C\c3cccc(Oc4ccc(C(F)(F)F)cn4)c3)CC2)cnc1N (centres undefined) | 3.1 µM | 17 h | 2 µM | 3 µM | 80.1 µM·h | 109 µM·h | 1.2 L/kg | 0.5 | 0.5 | > 12500 nM | 17 h | 1.1 µM | 1.3 µM | 1.2 L/kg | 0.6 µM | 1.3 nM | 46% | 37 µM | 20 µM | selectivity ratio (CYP2C19): > 5000; selectivity ratio (CYP2D6 [8]): > 5000; selectivity ratio (CYP2C9): > 5000; Ratio IC50 [12]: > 10000; inhibition (INH) (Monoglyceride lipase): Not Active; selectivity ratio (CYP2D6 [19]): > 5000; selectivity ratio (CYP3A4): > 5000

Row | SMILES | Drug metabolism [22] | concentration at 4 h [1] | half-life [2] | concentration at 2 h [3] | concentration at 32 h [4] | AUC(0-t) at 48 h [5] | AUC(0-t) at 48 h [6] | Vd [7] | Kp [9] | Kp [10] | IC50 (Cytochrome P450 2D6) | half-life [11] | concentration at 48 h [13] | concentration at 24 h [14] | Vd [15] | concentration at 48 h [16] | IC50 [17] | bioavailability [18] | concentration at 4 h [20] | concentration at 32 h [21] | other results
4 | Nc1ncc(C(=O)N[C@H]2CC/C(=C\c3cccc(Oc4ccc(C(F)(F)F)cn4)c3)CC2)cn1 (centres undefined) | ≤ 0.04 nmol/min/mg | 6.3 µM | 17.2 h | 6.5 µM | 2.7 µM | 192 µM·h | 155 µM·h | 0.8 L/kg | 0.8 | 0.8 | > 12500 nM | 17.2 h | 1.3 µM | 4.4 µM | 0.8 L/kg | 1.1 µM | 0.6 nM | 46% | 38 µM | 13 µM | selectivity ratio (CYP2C19): > 5000; selectivity ratio (CYP2D6 [8]): > 5000; selectivity ratio (CYP2C9): > 5000; Ratio IC50 [12]: > 10000; inhibition (INH) (Monoglyceride lipase): Not Active; selectivity ratio (CYP2D6 [19]): > 5000; selectivity ratio (CYP3A4): > 5000
